Consider two substances from patent US8329919B2, “Salt hydrates” (Novartis AG, priority 2002, dated 2012).

“And” between values parts separate entries of the source, which are not always exact repeats. Equal entries are not always repeated.

The data set in a line: Thermogravimetry: weight loss, i.e. water loss, as a function of temperature (thermobalance TGS-2). The format is physicochemical. The note with it: heating rate 10 K·min^−1, water-free N2 atmosphere. As to the method:
Using thermogravimetry, in a water-free N2 atmosphere, the weight loss, i.e. the water loss for the tetrahydrate of the calcium salt of valsartan A1,Ca as a function of temperature, was measured at a heating rate of 10 K·min^−1. […]
Using thermogravimetry, in a water-free N2 atmosphere, the weight loss, i.e. the water loss for the trihydrate of the calcium salt of valsartan in the polymorphic form B1,Ca as a function of temperature, was measured at a heating rate of 10 K·min^−1.
Using thermogravimetry, in a water-free N2 atmosphere, the weight loss, i.e. the water loss for the trihydrate B2,Ca as a function of temperature, was measured at a heating rate of 10 K·min^−1. The results for the polymorph B2,Ca of the trihydrate of the calcium salt of valsartan are illustrated in table 4.
Using thermogravimetry, in a water-free N2 atmosphere, the weight loss, i.e. the water loss for the trihydrate B3,Ca as a function of temperature, was measured at a heating rate of 10 K·min^−1. The results for the polymorphic form B3,Ca of the trihydrate of the calcium salt of valsartan are illustrated in table 5.
Using thermogravimetry, in a water-free N2 atmosphere, the weight loss, i.e. the water loss for the di-(calcium salt of valsartan) pentahydrate D1,Ca as a function of temperature, was measured at a heating rate of 10 K·min^−1.
The instrument used for the calorimetric data is throughout a DSC Pyris 1 (Differential Scanning calorimeter) obtained from Perkin-Elmer Corp., Norwalk, Conn. USA. The measurements are performed with samples enclosed in a sealed gold specimen container with an internal free volume of ca. 22 microliters, with a sample weight of 2 to 4 mg and with a heating rate of Tr=10K·min^−1. […] The instrument used was a TGS-2 (Perkin-Elmer Corp., Norwalk, Conn. USA) and the measurement was performed in a water free atmosphere. The heating rate selected was 10 K·min^−1. The weight loss is illustrated in table 7.
The heating rate selected was 10K·min^−1.
Using thermogravimetry, in a water-free N2 atmosphere, the weight loss, i.e. the water loss for the tetrahydrate as a function of temperature, was measured at a heating rate of 10 K·min^−1. The results for the calcium salt of valsartan tetrahydrate A0,Ca are listed in the following: […]
Using thermogravimetry, in a water-free N2 atmosphere, the weight loss, i.e. the water loss for the tetrahydrate of the calcium salt of valsartan as a function of temperature, was measured at a heating rate of 10 K·min^−1.

As to “(S)—N-(1-carboxy-2-methyl-prop-1-yl)-N-pentanoyl-N-[2′-(1H-tetrazol-5-yl)-biphenyl-4-ylmethyl]-amine calcium salt trihydrate [B1,Ca]”, the “weight loss or water loss in %” value by setting is: (temperature 25 °C, calcium salt trihydrate) 0.4 ± 0.3% and 0.5%; (temperature 50 °C, calcium salt trihydrate) 2.0 ± 0.5% and 2.0%; (temperature 75 °C, calcium salt trihydrate) 4.0 ± 0.5% and 3.9%; (temperature 100 °C, calcium salt trihydrate) 6.3 ± 0.5% and 5.7%; (temperature 125 °C, calcium salt trihydrate) 8.5 ± 0.5% and 8.1%; (temperature 150 °C, calcium salt trihydrate) 9.5 ± 0.5% and 9.2%. For the same substance, the “weight loss or water loss in %” value (temperature 175 °C, calcium salt trihydrate) was 9.7 ± 0.5% and 9.5%; the “weight loss or water loss in %” value (temperature 200 °C) is listed as 9.7%; the “weight loss or water loss in %” value (temperature 200 °C, calcium salt trihydrate) is listed as 9.9 ± 0.5%; the “weight loss or water loss in %” value (temperature 225 °C, calcium salt trihydrate) was 9.9 ± 0.5% and 9.7%; the “weight loss or water loss in %” value (temperature 250 °C, calcium salt trihydrate) is 10.0 ± 0.5% and 9.9%; the “weight loss or water loss in %” value (temperature 275 °C, calcium salt trihydrate) was 10.3 ± 0.5% and 10.2%.

In the case of “(S)—N-(1-carboxy-2-methyl-prop-1-yl)-N-pentanoyl-N-[2′-(1H-tetrazol-5-yl)-biphenyl-4-ylmethyl]-amine calcium salt trihydrate [B2,Ca]”, the “weight loss or water loss in %” value (temperature 25 °C) was found to be 0%; the “weight loss or water loss in %” value (temperature 25 °C, calcium salt trihydrate, crystalline trihydrate B2,Ca polymorph) was 0.1 ± 0.2%; the “weight loss or water loss in %” value (temperature 50 °C, calcium salt trihydrate, crystalline trihydrate B2,Ca polymorph) is 0.9 ± 0.3%; the “weight loss or water loss in %” value (temperature 75 °C, calcium salt trihydrate, crystalline trihydrate B2,Ca polymorph) was found to be 2.2 ± 0.5%; the “weight loss or water loss in %” value (temperature 100 °C, calcium salt trihydrate, crystalline trihydrate B2,Ca polymorph) was 5.8 ± 0.5%; the “weight loss or water loss in %” value (temperature 125 °C, calcium salt trihydrate, crystalline trihydrate B2,Ca polymorph) is 8.9 ± 0.5%. The “weight loss or water loss in %” value by setting is: (temperature 150 °C, calcium salt trihydrate, crystalline trihydrate B2,Ca polymorph) 9.9 ± 0.5%; (temperature 175 °C, calcium salt trihydrate, crystalline trihydrate B2,Ca polymorph) 10.2 ± 0.5%; (temperature 200 °C) 9.7%; (temperature 200 °C, calcium salt trihydrate, crystalline trihydrate B2,Ca polymorph) 10.3 ± 0.5%; (temperature 225 °C, calcium salt trihydrate, crystalline trihydrate B2,Ca polymorph) 10.5 ± 0.5%; (temperature 250 °C, calcium salt trihydrate, crystalline trihydrate B2,Ca polymorph) 10.5 ± 0.5%. Moreover, for the setting “temperature 275 °C, calcium salt trihydrate, crystalline trihydrate B2,Ca polymorph”, the “weight loss or water loss in %” value turned out to be 10.8 ± 0.5%.
